Results on 9 molecules are retold here after US12590123B2, “Compounds and methods for treating cancer, viral infections, and allergic conditions” (Washington University, priority 2019, dated 2026).

One assay deals with T1, KLK5 (Homo sapiens, UniProt Q9Y337).
T1 construct: purchased R&D Systems 1108-SE-010
T1 sequence (Q9Y337 23-293): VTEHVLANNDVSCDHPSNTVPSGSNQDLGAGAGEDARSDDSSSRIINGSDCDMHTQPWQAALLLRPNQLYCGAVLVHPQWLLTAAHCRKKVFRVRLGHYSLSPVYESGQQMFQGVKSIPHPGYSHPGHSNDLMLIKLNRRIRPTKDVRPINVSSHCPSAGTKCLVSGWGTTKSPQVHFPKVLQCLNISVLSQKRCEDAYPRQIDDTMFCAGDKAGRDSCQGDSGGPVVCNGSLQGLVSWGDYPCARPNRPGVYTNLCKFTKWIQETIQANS
Kind of assay: Fluorescent kinetic enzyme inhibitor assay of KLK5 (Boc-VPR-AMC). Type of assay: biochemical. To be noted: Table 4; 7.5 nM KLK5, 100 μM substrate. The protocol:
Fluorescent Kinetic Enzyme Inhibitor Assay of KLK5: Inhibitors (11-pt serial dilutions, 0-20 μM final concentration in reaction) were serially diluted in DMSO (2% DMSO final concentration) and then mixed with KLK5 (#1108-SE-010, R&D Systems, Minneapolis, Minnesota) in black 384 well plates (Corning #3575. Corning, NY). The final assay concentration for KLK5 is 7.5 nM in TNC buffer (25 mM Tris, 150 mM NaCl, 5 mM CaCl2), 0.01% Triton X-100, pH 8). After thirty minutes incubation at room temperature, Boc-VPR-AMC substrate was added. The final substrate concentrations for assay is 100 μM. Changes in fluorescence (excitation at 380 nm and emission at 460 nm) were measured at room temperature over time in a Biotek Synergy 2 plate reader (Winnoski, VT). Using GraphPad Prism version 6.04 software program, (GraphPad Software, San Diego, CA, graphpad.com), a four parameter curve fit was used to determine the inhibitor IC50s from a plot of the mean reaction velocity versus the inhibitor concentration. The IC50 values represent the average of three or more separate experimental determinations.

Another assay concerns the target T2, activated hepsin (Homo sapiens, UniProt P05981).
T2 construct: purchased R&D Systems 4776-SE-010
Nature of the assay: Fluorescent kinetic enzyme assay of hepsin activity (Boc-QAR-AMC). The class given is biochemical.

Assay [1] deals with VSVpp (SARS-2-S) entry into TMPRSS2-positive Calu-3 cells.
Another assay has as its target recombinant thrombin (Homo sapiens, UniProt P00734). Nature of the assay: Chromogenic kinetic enzyme assay of thrombin (S2238). Type of assay: biochemical. To be noted: Table 2; chromogenic assay; read-out: Thrombin* (IC50 nM). The protocol: Using GraphPad Prism (GraphPad Software, San Diego, CA), a four-parameter curve fit was used to determine the inhibitor IC50s from a plot of the mean reaction velocity versus the inhibitor concentration. The IC50 values represent the average of three or more separate experimental determinations. Apparent Ki values were calculated from the IC50 values using the Cheng and Prusoff equation (Ki=IC50/(1+[S]/Km).
Using GraphPad Prism version 6.04 software program, (GraphPad Software, San Diego, CA, graphpad.com), a four parameter curve fit was used to determine the inhibitor IC50s from a plot of the mean reaction velocity versus the inhibitor concentration.
Fluorescent inhibitor and chromogenic proteolytic assays were performed for compounds prepared in Example 11 in general accordance with the procedures described in Example 9.

The next assay concerns the target T3, matriptase (Homo sapiens, UniProt Q9Y5Y6).
T3 construct: purchased R&D Systems 3946-SE-010
T3 sequence (Q9Y5Y6 615-855 limits assumed): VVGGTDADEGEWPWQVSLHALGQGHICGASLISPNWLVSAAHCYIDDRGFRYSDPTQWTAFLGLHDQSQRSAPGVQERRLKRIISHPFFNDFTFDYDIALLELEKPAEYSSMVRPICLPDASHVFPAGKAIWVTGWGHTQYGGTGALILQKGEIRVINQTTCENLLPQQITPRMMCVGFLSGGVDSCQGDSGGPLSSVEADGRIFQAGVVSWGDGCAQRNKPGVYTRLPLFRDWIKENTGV
Kind of assay: Fluorescent kinetic enzyme assay of matriptase activity (Boc-QAR-AMC). The class given is biochemical. To be noted: Table 2; read-out: Matriptase (IC50 nM).

Assay [2] addresses T4, recombinant HGFA serine protease domain (Homo sapiens, UniProt Q04756).
T4 construct: His6 tag (N); seven amino acid spacer plus TEV cleavage site (N); made in house; host or cells: High 5 insect cells (baculovirus; Sf9 for virus production)
T4 sequence (Q04756 373-655): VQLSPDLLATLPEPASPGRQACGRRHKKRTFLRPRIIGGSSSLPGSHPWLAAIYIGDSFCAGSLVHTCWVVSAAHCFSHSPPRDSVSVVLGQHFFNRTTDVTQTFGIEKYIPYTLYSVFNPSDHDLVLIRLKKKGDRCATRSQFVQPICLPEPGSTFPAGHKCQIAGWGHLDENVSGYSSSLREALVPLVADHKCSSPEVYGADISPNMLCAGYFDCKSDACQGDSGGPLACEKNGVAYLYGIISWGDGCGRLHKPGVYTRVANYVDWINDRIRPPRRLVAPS
Kind of assay: Fluorescent kinetic enzyme assay of HGFA activity (Boc-QLR-AMC). The class given is biochemical. To be noted: Table 2; read-out: HGFA (IC50 nM). In outline:
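His-tagged HGFA protease domain from baculovirus-infected High 5 cells, 6.25 nM in pH 8 Tris/NaCl/5 mM CaCl2/0.01% Triton X-100 with 2% DMSO. IC50 from four-parameter velocity fit (≥3 runs); apparent Ki by Cheng–Prusoff.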

Another assay addresses Factor Xa (Homo sapiens, UniProt P00742). Nature of the assay: Chromogenic kinetic enzyme assay of Factor Xa (S2222). Type of assay: biochemical. Conditions: Table 2; chromogenic assay; read-out: Factor Xa* (IC50 nM).
Setting [3] is: Table 2, read-out: Hepsin (IC50 nM).

Like-named read-outs stand apart in the source and are kept apart here. Some results are limits rather than exact numbers.

T2 sequence (P05981 163-417 limits assumed): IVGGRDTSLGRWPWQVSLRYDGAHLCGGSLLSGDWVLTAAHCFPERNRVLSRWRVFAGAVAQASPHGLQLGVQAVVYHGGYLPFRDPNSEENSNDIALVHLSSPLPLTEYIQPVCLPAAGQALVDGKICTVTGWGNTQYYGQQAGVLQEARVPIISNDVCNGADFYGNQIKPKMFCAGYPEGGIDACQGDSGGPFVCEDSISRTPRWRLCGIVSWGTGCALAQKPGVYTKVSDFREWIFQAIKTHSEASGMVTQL
T2 sequence (P05981 1-162 partner limits assumed): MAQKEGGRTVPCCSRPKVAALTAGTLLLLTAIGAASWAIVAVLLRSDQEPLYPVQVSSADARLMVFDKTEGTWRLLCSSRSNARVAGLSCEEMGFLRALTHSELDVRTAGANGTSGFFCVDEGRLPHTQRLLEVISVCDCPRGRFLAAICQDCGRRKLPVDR
Factor Xa, sequence (P00742 235-488 limits assumed): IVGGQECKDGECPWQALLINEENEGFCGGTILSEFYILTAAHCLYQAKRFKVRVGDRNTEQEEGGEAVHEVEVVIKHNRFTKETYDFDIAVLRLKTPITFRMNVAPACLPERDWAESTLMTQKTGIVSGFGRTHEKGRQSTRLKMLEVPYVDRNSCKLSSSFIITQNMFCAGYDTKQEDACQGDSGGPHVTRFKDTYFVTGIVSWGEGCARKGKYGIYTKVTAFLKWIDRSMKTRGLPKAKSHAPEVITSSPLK
Factor Xa, sequence (P00742 41-179 partner limits assumed): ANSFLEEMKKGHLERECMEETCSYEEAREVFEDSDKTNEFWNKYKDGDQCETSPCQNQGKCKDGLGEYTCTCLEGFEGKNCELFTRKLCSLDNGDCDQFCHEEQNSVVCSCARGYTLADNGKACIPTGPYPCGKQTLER
Method for activated hepsin: After thirty minutes of incubation at room temperature, Boc-QLR-AMC substrate was added (HGFA assay) or Boc-QAR-AMC substrate (matriptase, and hepsin assays). […] From a plot of the mean reaction velocity versus the inhibitor concentration, a non-linear four parameter curve fit was performed using GraphPad Prism (GraphPad Software, San Diego, CA) to determine inhibitor IC50s. The IC50 values were determined from the average of three or more separate experimental determinations. Apparent Ki values were calculated using the Cheng and Prusoff equation (Ki=IC50/(1+[S]/Km).
Inhibitors were pre-incubated with protease followed by the addition of the substrate. Inhibition of substrate proteolysis derived fluorescence was monitored kinetically over a period of one hour.

With `CC(=O)N[C@@H](Cc1c[nH]c2ccccc12)C(=O)N[C@@H](Cc1ccccc1)C(=O)N[C@@H](CCCNC(=N)N)C(=O)c1nc2ccccc2s1` [AcWFRkbt, Ac-WFR-kbt], the IC50 at KLK5 is over 20 µM.
Still for that read-out and setting: as for `CC(=O)N[C@@H](CC(C)C)C(=O)N[C@@H](CC(C)C)C(=O)N[C@H](C=O)CCCNC(=N)N` [Leupeptin, reference compound], the figure is over 20 µM; as for `CC(=O)N[C@H]1CC(=O)NCCCC[C@@H](C(=O)N[C@@H](CCCNC(=N)N)B(O)O)NC(=O)[C@H](CC(C)C)NC1=O` [MM2030], 18.1 µM.
As to `CC(=O)N[C@H]1CC(=O)NCCCC[C@@H](C(=O)N[C@@H](CCCNC(=N)N)C(=O)c2nc3ccccc3s2)NC(=O)[C@H](CC(C)C)NC1=O` [VD2173, (3S,6S,14S)-6-acetamido-N—((S)-1-(benzo[d]thiazol-2-yl)-5-guanidino-1-oxopentan-2-yl)-3-isobutyl-2,5,8-trioxo-1,4,9-triazacyclotetradecane-14-carboxamide], the IC50 was determined as 8.4 nM on activated hepsin (setting [3]); 10 nM at activated hepsin (Table 6, read-out: Hepsin IC50); 699 nM at recombinant thrombin. Further, a half-maximal effect in assay [1] (EC50) was put at 0.104 µM.
`CC(=O)N[C@H]1Cc2ccc(cc2)OC/C=C\C[C@@H](C(=O)N[C@@H](CCCNC(=N)N)C(=O)c2nc3ccccc3s2)NC(=O)[C@H](CC(C)C)NC1=O` [VD4010, (7S,10S,13S,Z)-13-acetamido-N—((S)-1-(benzo[d]thiazol-2-yl)-5-guanidino-1-oxopentan-2-yl)-10-isobutyl-9,12-dioxo-2-oxa-8,11-diaza-1(1,4)-benzenacyclotetradecaphan-4-ene-7-carboxamide]: the IC50 at activated hepsin (setting [3]) is 0.141 nM; on matriptase it was 3.24 nM; on KLK5 it was 1.83 µM; in assay [2], 11.1 nM; on Factor Xa it was 122 nM.
As to `CC(=O)N[C@H]1Cc2ccc(cc2)OCCCC[C@@H](C(=O)N[C@@H](CCCNC(=N)N)C(=O)c2nc3ccccc3s2)NC(=O)[C@H](CC(C)C)NC1=O` [VD4072, (7S,10S,13S)-13-acetamido-N—((S)-1-(benzo[d]thiazol-2-yl)-5-guanidino-1-oxopentan-2-yl)-10-isobutyl-9,12-dioxo-2-oxa-8,11-diaza-1(1,4)-benzenacyclotetradecaphane-7-carboxamide], the IC50 at activated hepsin (setting [3]) came to 0.175 nM; at matriptase, 7.76 nM; at KLK5, 5.23 µM; in assay [2] it was 7.99 nM.
Consider `CC(=O)N[C@H]1Cc2cn(nn2)CCCC[C@H](C(=O)N[C@@H](CCCNC(=N)N)C(=O)c2nc3ccccc3s2)NC(=O)[C@H](CC(C)C)NC1=O` [VD4090, (3S,6S,9R,Z)-3-acetamido-N—((S)-1-(benzo[d]thiazol-2-yl)-5-guanidino-1-oxopentan-2-yl)-6-isobutyl-4,7-dioxo-11H-5,8-diaza-1(4,1)-triazolacyclotridecaphane-9-carboxamide], for which the IC50 on activated hepsin (setting [3]) amounted to 14.1 nM; at matriptase, 39.1 nM; at KLK5, 9.39 µM.
As to `CC(=O)N[C@H]1Cc2ccc(cc2)OCCCC[C@@H](C(=O)N[C@@H](CCCNC(=N)N)C(=O)c2nc3ccccc3s2)NC(=O)[C@H](Cc2ccccc2)NC1=O` [VD4111, (7S,10S,13S)-13-acetamido-N—((S)-1-(benzo[d]thiazol-2-yl)-5-guanidino-1-oxopentan-2-yl)-10-benzyl-9,12-dioxo-2-oxa-8,11-diaza-1(1,4)-benzenacyclotetradecaphane-7-carboxamide], the IC50 at activated hepsin (setting [3]) was determined as 0.331 nM; at matriptase, 17 nM; at KLK5, 0.647 µM; in assay [2], 11.9 nM.
As to `CC(=O)N[C@H]1Cc2ccc(cc2)OCCCC[C@@H](C(=O)N[C@@H](CCCNC(=N)N)C(=O)c2nc3ccccc3s2)NC(=O)[C@H](Cc2c[nH]c3ccccc23)NC1=O` [VD4158], the IC50 at matriptase came out at 56.8 nM; at KLK5 it was 3.56 µM; in assay [2], 85.2 nM.

In general, IC50 refers to the concentration needed to halve the response being measured. In general, EC50 refers to the concentration needed to bring the measured effect to its halfway point. Read a high EC50 as weaker potency.
